Data reported in patent US9387198B1 (priority 2015, dated 2016).

Columns and labels:
[1] = Cytotoxicity evaluation by MTT-assay; details: mouse, mouse fibroblast (3T3) cells
Procedure: (§1) Cytotoxicity evaluation was also carried out against mouse fibroblast (3T3) cell-line by employing MTT-assay.

[2] = biological target: T1, human serum albumin (HSA) (Homo sapiens, UniProt P02768); assay: Fluorescence-based anti-glycation assay (fructose-mediated glycation of HSA); format: biochemical; details: compared to reference compound rutin
T1 construct: purchased Sigma Aldrich, St. Louis, Mo., USA
Procedure: Prior to incubation, rutin (reference compound) and 6-nitrobenzimidazole derivatives were added to a reaction mixture to a final concentration of 1 mM. DMSO was used as a solvent (final concentration: 10%) in this assay.
Percentage Inhibition=(1−Fluorescence of test compounds/Fluorescence of glycated-HSA)×100 Where, Test compounds=6-Nitrobenzimidazole derivatives

[3] = test system: rat hepatocytes (CC1-Cell line); assay: Fructose-derived AGE-induced intracellular ROS production (DCFH-DA technique); format: cell-based; details: for effect on ROS production (in words): AGE 200 μg/mL; for Fluorescence (Average), AGE-mediated intracellular ROS production: co-incubated with AGEs 200 μg/mL, 24 hours
Procedure: Procedure of the Assay: Briefly, 6×10^4 cells/mL cells (normal rat hepatocytes: CC1-Cell line) were seeded on a 96-well plate and kept for 24 hours in an incubator, containing 5% CO2 at 37° C. […] Initially the cells were incubated with 10 μM DCFH-DA non fluorescent probe, for 45 mins in the dark environment. […] The control was treated with 0.5% H2O2 just before 1 hour prior to halt the incubation period.
Detection of Fluorescence Intensity: The intensity of fluorescence was measured at an excitation 490 nm and an emission 520 nm, using Spectra Max Spectrophotometer (Applied Biosystems, CA, USA).
Where, Blank=Normal rat hepatocytes Control=Rat hepatocytes treated with 0.5% […] Test compound=6-Nitrobenzimidazole derivative

[4] = test system: rat hepatocytes (CC1-Cell line); assay: Fructose-derived AGE-mediated diminished growth of hepatocytes (MTT assay); format: cell-based; details: for effect on hepatocytes growth and proliferation (in words) / Percentage Inhibition (remaining growth inhibition of hepatocytes versus normal cells): AGEs 200 μg/mL; for Percentage Inhibition (remaining growth inhibition of hepatocytes versus normal cells): lower = more growth restored; for Absorbance (Average), AGE-mediated diminished growth of the hepatocytes: co-incubated with AGEs 200 μg/mL, 540 nm
Procedure: The mixture was incubated at 37° C. for 12 weeks under dark sterile environment. […] The cells treated with Triton X-100 were used as a blank, while normal cells remain untreated were used as a control.
MTT Assay: Following 24 hours of incubation, the plate was decanted to remove the medium and the cells were washed with 1×PBS. The MTT-dye (50 μL: 2 mg/mL) was then loaded to each well. 200 μL (final reaction volume) was reconstituted by serum free-MEM (Minimum essential media) in a dark environment. The plate was incubated in 5% CO2 containing incubator at 37° C. for the next 4 hours. At the end of the incubation, the medium was removed and the crystals were dissolved by adding 100 μL DMSO into each well.
Measurement of Absorbance: The intensity of purple colored solution was measured at the wavelength of 540 nm, using Spectra Max Spectrophotometer (Applied Biosystems, CA, USA).
Where, Blank=Triton X-100 treated rat hepatocytes Control=Normal rat hepatocytes Test Compound=6-nitrobenzimidazole derivatives

in vitro = details: mouse
Procedure: as §1

[5] = Rattus norvegicus, Hepatocyte, 24 h, read-out: Percentage Inhibition of AGE-mediated intracellular ROS production

T1 sequence (P02768 25-609): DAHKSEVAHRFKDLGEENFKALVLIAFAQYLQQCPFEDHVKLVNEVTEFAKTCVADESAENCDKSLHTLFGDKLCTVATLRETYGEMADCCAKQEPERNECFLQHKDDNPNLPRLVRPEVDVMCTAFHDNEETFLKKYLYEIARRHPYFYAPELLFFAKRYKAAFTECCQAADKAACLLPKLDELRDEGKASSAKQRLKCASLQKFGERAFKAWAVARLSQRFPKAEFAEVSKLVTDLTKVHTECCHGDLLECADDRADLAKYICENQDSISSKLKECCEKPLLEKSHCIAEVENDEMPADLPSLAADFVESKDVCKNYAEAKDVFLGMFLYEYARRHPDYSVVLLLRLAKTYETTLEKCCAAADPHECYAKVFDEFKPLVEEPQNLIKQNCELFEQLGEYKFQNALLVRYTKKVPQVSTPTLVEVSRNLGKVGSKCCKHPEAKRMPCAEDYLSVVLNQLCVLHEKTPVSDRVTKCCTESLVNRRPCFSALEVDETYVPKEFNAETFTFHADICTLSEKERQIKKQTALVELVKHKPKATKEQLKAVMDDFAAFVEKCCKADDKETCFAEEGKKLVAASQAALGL

With `O=[N+]([O-])c1ccc2nc(-c3cccc(O)c3O)[nH]c2c1` [Compound 1, 3-(6-Nitro-1H-benzimidazol-2-yl)-1,2-benzenediol] the cytotoxicity [1] was 35.9% and the “anti-glycation activity (in words)” value [2] was “significant anti-glycation activity”.

For `O=[N+]([O-])c1ccc2nc(-c3cc(O)ccc3O)[nH]c2c1` [Compound 2, 2-(6-Nitro-1H-benzimidazol-2-yl)-1,4-benzenediol], the cytotoxicity [1] was 21.1% and the “anti-glycation activity (in words)” value [2] was “significant anti-glycation activity”.

`O=[N+]([O-])c1ccc2nc(-c3ccsc3)[nH]c2c1` [Compound 3, 6-Nitro-2-(3-thienyl)-1H-benzimidazole] gave a cytotoxicity [1] of 19.7%.

With `O=[N+]([O-])c1ccc2nc(-c3ccc(O)c(O)c3O)[nH]c2c1` [Compound 4, 4-(6-Nitro-1H-benzimidazol-2-yl)-1,2,3-benzenetriol] the cytotoxicity [1] was 9.8%, the inhibition at 24 µM [3, 5] was 63.6% and the inhibition at 33 µM [3, 5] was 89.2%. For the same compound, the inhibition at 49 µM [3, 5] was 93.4%, the “effect on ROS production (in words)” value ([3]; compound 24 μM) was “moderate activity against ROS production” and the “Fluorescence (Average), AGE-mediated intracellular ROS production” value (“Fluorescence (Average)” for short) ([3]; compound 24 μM) was 138.8. The “effect on ROS production (in words)” value ([3]; compound 33 μM) was “significantly impaired the ROS production”, the “Fluorescence (Average)” value ([3]; compound 33 μM) was 97.5 and the “effect on ROS production (in words)” value ([3]; compound 49 μM) was “inhibited the AGE-induced ROS production in rat hepatocytes in a remarkably significant manner”. For the same compound, the “Fluorescence (Average)” value ([3]; compound 49 μM) was 90.7, the “effect on hepatocytes growth and proliferation (in words)” value ([4]; compound 24 μM) was “significant effect on the growth and proliferation” and the “Percentage Inhibition (remaining growth inhibition of hepatocytes versus normal cells)” value ([4]; compound 24 μM, 24 hours) was 35.8%. The “Absorbance (Average), AGE-mediated diminished growth of the hepatocytes” value (“Absorbance (Average)” for short) ([4]; compound 24 μM, 24 hours) was 0.91, the “effect on hepatocytes growth and proliferation (in words)” value ([4]; compound 33 μM, 24 hours) was “significantly restored the growth and proliferation” and the “Percentage Inhibition (remaining growth inhibition of hepatocytes versus normal cells)” value ([4]; compound 33 μM, 24 hours) was 34.3%. For the same compound, the “Absorbance (Average)” value ([4]; compound 33 μM, 24 hours) was 0.93, the “effect on hepatocytes growth and proliferation (in words)” value ([4]; compound 49 μM) was “as effective as 33 μM concentration in reducing the toxicity of AGEs” and the “Percentage Inhibition (remaining growth inhibition of hepatocytes versus normal cells)” value ([4]; compound 49 μM, 24 hours) was 22.2%. The “Absorbance (Average)” value ([4]; compound 49 μM, 24 hours) was 1.05 and the “anti-glycation activity (in words)” value [2] was “significant anti-glycation activity”.

With `O=[N+]([O-])c1ccc2nc(-c3c(O)cc(O)cc3O)[nH]c2c1` [Compound 5, 2-(6-Nitro-1H-benzimidazol-2-yl)-1,3,5-benzenetriol] the cytotoxicity [1] was 4%.

With `O=[N+]([O-])c1ccc2nc(-c3ccc(O)c(O)c3)[nH]c2c1` [Compound 6, 4-(6-Nitro-1H-benzimidazol-2-yl)-1,2-benzenediol] the cytotoxicity [1] was 3.4% and the “anti-glycation activity (in words)” value [2] was “significant anti-glycation activity”.

For `O=[N+]([O-])c1ccc2nc(-c3ccc(O)cc3O)[nH]c2c1` [Compound 7, 4-(6-Nitro-1H-benzimidazol-2-yl)-1,3-benzenediol], the cytotoxicity (in vitro) was 37.4% and the “anti-glycation activity (in words)” value [2] was “significant anti-glycation activity”.

Work on `Cc1ccc(-c2nc3cc([N+](=O)[O-])ccc3[nH]2)cc1` [Compound 8, 2-(4-Methylphenyl)-6-nitro-1H-benzimidazole] yielded a cytotoxicity [1] of 59.2%.

For `O=[N+]([O-])c1ccc(-c2nc3cc([N+](=O)[O-])ccc3[nH]2)cc1` [Compound 9, 6-Nitro-2-(4-nitrophenyl)-1H-benzimidazole], the cytotoxicity [1] was 45.2%.

With `O=[N+]([O-])c1ccc2nc(-c3ccc(O)cc3)[nH]c2c1` [Compound 10, 4-(6-Nitro-1H-benzimidazol-2-yl) phenol] the cytotoxicity [1] was 3.6%.
